Results as given in ChEMBL document CHEMBL1149422, “Expedited SAR study of high-affinity ligands to the alpha(2)delta subunit of voltage-gated calcium channels: Generation of a focused library using a solution-phase Sn2Ar coupling methodology” (Bioorg Med Chem Lett, 2006).

Each compound was assayed against Voltage-dependent calcium channel subunit alpha-2/delta-1 (Homo sapiens, UniProt P54289) (assay: [3H]Gabapentin binding in human A710 membrane expressing alpha-2delta subunit of calcium channel).
Voltage-dependent calcium channel subunit alpha-2/delta-1, sequence (P54289 25-956 limits assumed): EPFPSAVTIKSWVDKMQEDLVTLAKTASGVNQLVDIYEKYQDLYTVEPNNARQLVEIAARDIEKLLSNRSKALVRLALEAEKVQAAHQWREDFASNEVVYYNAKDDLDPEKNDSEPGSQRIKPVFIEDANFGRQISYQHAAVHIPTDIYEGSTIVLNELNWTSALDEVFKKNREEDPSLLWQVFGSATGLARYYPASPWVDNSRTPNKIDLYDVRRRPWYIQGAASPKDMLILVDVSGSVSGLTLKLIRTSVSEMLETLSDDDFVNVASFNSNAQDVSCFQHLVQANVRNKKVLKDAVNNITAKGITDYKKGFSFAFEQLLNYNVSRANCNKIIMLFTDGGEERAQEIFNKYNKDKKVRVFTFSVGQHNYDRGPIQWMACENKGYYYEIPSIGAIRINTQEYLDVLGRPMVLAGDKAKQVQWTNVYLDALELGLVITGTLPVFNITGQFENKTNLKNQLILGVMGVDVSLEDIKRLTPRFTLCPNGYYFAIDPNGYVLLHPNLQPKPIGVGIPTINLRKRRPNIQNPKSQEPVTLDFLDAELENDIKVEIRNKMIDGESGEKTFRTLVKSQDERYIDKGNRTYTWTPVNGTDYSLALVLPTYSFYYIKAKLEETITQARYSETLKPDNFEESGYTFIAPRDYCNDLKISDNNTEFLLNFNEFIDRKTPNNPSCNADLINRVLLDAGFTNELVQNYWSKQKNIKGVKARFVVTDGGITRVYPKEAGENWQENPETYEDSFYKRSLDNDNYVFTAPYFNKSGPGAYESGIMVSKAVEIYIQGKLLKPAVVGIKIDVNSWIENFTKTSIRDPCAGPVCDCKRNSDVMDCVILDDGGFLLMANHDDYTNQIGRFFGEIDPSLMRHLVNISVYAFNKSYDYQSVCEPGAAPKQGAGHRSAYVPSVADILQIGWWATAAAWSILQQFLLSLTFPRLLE
Voltage-dependent calcium channel subunit alpha-2/delta-1, sequence (P54289 957-1103 limits assumed): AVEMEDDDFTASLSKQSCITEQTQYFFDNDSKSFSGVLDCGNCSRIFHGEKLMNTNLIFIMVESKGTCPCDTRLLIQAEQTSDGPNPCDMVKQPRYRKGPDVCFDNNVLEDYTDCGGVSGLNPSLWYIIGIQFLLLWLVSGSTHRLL
Type: cell membranes

| IC50 | SMILES |
| --- | --- |
| > 3000 nM | CCOc1ccc(-n2c(C)c3c(C)nnc(N4CC(C)OC(C)C4)c3c2C)cc1 (stereo not drawn) |
| 36 nM | CCOc1ccc(-n2c(C)c3c(C)nnc(Nc4ccc5[nH]ncc5c4)c3c2C)cc1 |
| 32 nM | CCOc1ccc(-n2c(C)c3c(C)nnc(NCc4ccc5c(n4)NCCC5)c3c2C)cc1 |
| 50 nM | CCOc1ccc(-n2c(C)c3c(C)nnc(NCC4CCCO4)c3c2C)cc1 (stereo not drawn) |
| 70 nM | CCOc1ccc(-n2c(C)c3c(C)nnc(NCc4cccc5[nH]ccc45)c3c2C)cc1 |
| 37 nM | CCOc1ccc(-n2c(C)c3c(C)nnc(NCc4cccc(Cl)c4)c3c2C)cc1 |
| 207 nM | CCOc1ccc(-n2c(C)c3c(C)nnc(Nc4ccc5c(c4)OCO5)c3c2C)cc1 |
| 153 nM | CCOc1ccc(-n2c(C)c3c(C)nnc(N4CCC(c5ccccc5)(c5ccccc5)C4)c3c2C)cc1 |
| 135 nM | CCOc1ccc(-n2c(C)c3c(C)nnc(N4CCC5=C(C4)NC4C=CC=CC54)c3c2C)cc1 (stereo not drawn) |
| > 3000 nM | CCOc1ccc(-n2c(C)c3c(C)nnc(NCc4ccccn4)c3c2C)cc1 |
| 296 nM | CCOc1ccc(-n2c(C)c3c(C)nnc(NC(C)CC(C)C)c3c2C)cc1 (stereo not drawn) |
| 94 nM | CCOc1ccc(-n2c(C)c3c(C)nnc(NCc4ccc(F)cc4)c3c2C)cc1 |
| 2930 nM | CCOc1ccc(-n2c(C)c3c(C)nnc(N4CCN(C)CC4)c3c2C)cc1 |
| 1690 nM | CCOc1ccc(-n2c(C)c3c(C)nnc(N4CCOCC4)c3c2C)cc1 |
| 346 nM | CCOc1ccc(-n2c(C)c3c(C)nnc(Nc4ccc5[nH]nnc5c4)c3c2C)cc1 |
| 18 nM | CCOc1ccc(-n2c(C)c3c(C)nnc(NCc4cccc(F)c4)c3c2C)cc1 |
| 84 nM | CCOc1ccc(-n2c(C)c3c(C)nnc(N4C[C@@H]5CCc6ccccc6[C@@H]5C4)c3c2C)cc1 |
| 144 nM | CCOc1ccc(-n2c(C)c3c(C)nnc(N4CCC(NC(C)=O)C4)c3c2C)cc1 (stereo not drawn) |
| 370 nM | CCOc1ccc(-n2c(C)c3c(C)nnc(N4CCC(C)CC4)c3c2C)cc1 |

| IC50 | SMILES |
| --- | --- |
| 68 nM | CCOc1ccc(-n2c(C)c3c(C)nnc(NCc4n[nH]cc4C4CC4)c3c2C)cc1 |
| 119 nM | CCOc1ccc(-n2c(C)c3c(C)nnc(NCc4cccnc4)c3c2C)cc1 |
| 702 nM | CCOc1ccc(-n2c(C)c3c(C)nnc(N4CC(C)CC(C)C4)c3c2C)cc1 (stereo not drawn) |
| 702 nM | CCOc1ccc(-n2c(C)c3c(C)nnc(NCc4ccc(OC)cc4)c3c2C)cc1 |
| 180 nM | CCOc1ccc(-n2c(C)c3c(C)nnc(N4CCCC4)c3c2C)cc1 |
| 199 nM | CCOc1ccc(-n2c(C)c3c(C)nnc(Nc4ccc5c(c4)CCC5)c3c2C)cc1 |
| 67 nM | CCOc1ccc(-n2c(C)c3c(C)nnc(NC(C)C)c3c2C)cc1 |
| 239 nM | CCOc1ccc(-n2c(C)c3c(C)nnc(NCc4cccc(OC)c4)c3c2C)cc1 |
| 54 nM | CCOc1ccc(-n2c(C)c3c(C)nnc(NC4CCc5ccccc54)c3c2C)cc1 (stereo not drawn) |
| 61 nM | CCCCNc1nnc(C)c2c(C)n(-c3ccc(OCC)cc3)c(C)c12 |
| 76 nM | CCOc1ccc(-n2c(C)c3c(C)nnc(NCc4ccccc4OC)c3c2C)cc1 |
| 69 nM | CCOc1ccc(-n2c(C)c3c(C)nnc(NCc4cnn(C)c4)c3c2C)cc1 |
| 63 nM | CCOc1ccc(-n2c(C)c3c(C)nnc(NCc4cccc5cccnc45)c3c2C)cc1 |
| 30 nM | CCOc1ccc(-n2c(C)c3c(C)nnc(Nc4ccc5[nH]ccc5c4)c3c2C)cc1 |
| 84 nM | CCOc1ccc(-n2c(C)c3c(C)nnc(NCc4ccncc4)c3c2C)cc1 |
| 65 nM | CCOc1ccc(-n2c(C)c3c(C)nnc(NCc4ccc(Cl)cc4)c3c2C)cc1 |
| 64 nM | CCOc1ccc(-n2c(C)c3c(C)nnc(NCc4cnn(CC)c4)c3c2C)cc1 |
| 161 nM | CCOc1ccc(-n2c(C)c3c(C)nnc(NC4CCCc5ccccc54)c3c2C)cc1 (stereo not drawn) |
| 84 nM | CCOc1ccc(-n2c(C)c3c(C)nnc(NCC(C)CC)c3c2C)cc1 (stereo not drawn) |
